Reference: patent US11155851B2, “Compounds and methods relating to lysosomal storage disorders” (University of Washington through its Center of …, priority 2013, dated 2021)

What was measured:
[1] = molecular target: T1, acid-β-glucocerebrosidase (ABG) (Homo sapiens, UniProt P04062); test: Detection of enzyme activity in dried blood spots by mass spectrometry (ABG substrate); format: biochemical; conditions: FIG. 6, dried blood disk, substrate 500 μmol/L, 15 to 24 hours at 37° Celsius
T1 construct: from tissue; host or cells: dried blood spots from adult human venous blood
T1 sequence (P04062 40-536): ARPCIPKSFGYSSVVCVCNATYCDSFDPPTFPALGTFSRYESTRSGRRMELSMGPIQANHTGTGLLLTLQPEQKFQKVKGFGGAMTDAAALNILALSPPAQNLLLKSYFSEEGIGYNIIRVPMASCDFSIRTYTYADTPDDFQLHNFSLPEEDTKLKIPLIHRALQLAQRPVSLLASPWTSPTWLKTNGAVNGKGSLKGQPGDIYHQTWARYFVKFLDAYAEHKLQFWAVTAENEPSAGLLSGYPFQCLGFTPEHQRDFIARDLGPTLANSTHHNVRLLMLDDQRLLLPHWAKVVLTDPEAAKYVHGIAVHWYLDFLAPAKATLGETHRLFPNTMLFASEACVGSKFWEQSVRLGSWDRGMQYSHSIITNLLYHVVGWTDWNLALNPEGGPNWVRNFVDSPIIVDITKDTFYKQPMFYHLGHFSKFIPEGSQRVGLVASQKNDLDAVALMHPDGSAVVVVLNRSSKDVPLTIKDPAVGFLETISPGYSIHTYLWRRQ
Procedure: The substrates of Compounds 1 and 7 are used to detect the presence of acid-β-glucocerebrosidase (ABG) and galactocerebroside-β-galactosidase (GALC) respectively. Blood is obtained by venipuncture from consenting adult humans and blotted on filter paper. For each sample, a disk of 3 mm diameter is punched from the areas of dried blood into a well of a 96-well microtiter plate. The blood disk is then incubated directly with an assay solution containing substrates at a final concentration of 500 μmol/L and corresponding internal standards at a final concentration of 5 μmol/L. To the assay solution, a final concentration of 0.5 mol/L sodium acetate buffer with sodium taurocholate is also added. The assay mixture containing the blood disk is incubated for 15 to 24 hours at 37° Celsius with orbital shaking (150 rpm) in a thermostatic air shaker. After the incubation period, an aliquot of pure methanol is added to each tube or well to terminate the enzymatic reaction. Before going into the mass spectrometer, the incubated reaction mixture is diluted with pure methanol. For the mass spectrometry analysis, the electrospray source is operated in positive mode, and the ions are detected in parent-ion scan mode. The amount of enzymatic product is calculated from the ion abundance ratio of the product to the internal standard minus that of a blank.

[2] = molecular target: T1, acid-β-glucocerebrosidase (ABG); test: Simultaneous detection of multiple enzyme activity in dried blood spots by MS/MS (ABG); format: biochemical; conditions: Compounds 1 and 7 used simultaneously, substrates 100 μmol/L, dried blood disk, 15 to 24 hours at 37° Celsius
Procedure: The substrates of Compounds 1 and 7 are used simultaneously to detect the presence of acid-β-glucocerebrosidase (ABG) and galactocerebroside-β-galactosidase (GALC) respectively. Blood is obtained by venipuncture from consenting adult humans and blotted on filter paper. For each sample, a disk of 3 mm diameter is punched from the areas of dried blood into a well of a 96-well microtiter plate. The blood disk is then incubated directly with an assay solution containing substrates at a final concentration of 100 μmol/L and corresponding internal standards at a final concentration of 1 μmol/L. To the assay solution, a final concentration of 0.5 mol/L sodium acetate with sodium taurocholate buffer is also added (30 μl final assay volume). The assay mixture containing the blood disk is incubated for 15 to 24 hours at 37° Celsius with orbital shaking (150 rpm) in a thermostatic air shaker. After the incubation period, a 100 μl aliquot of 50:50 methanol/ethyl acetate is added to each tube or well to terminate the enzymatic reaction. The reaction is then supplemented with 400 μl HPLC grade ethyl acetate and 200 μl water. […] For mass spectrometry analysis, the electrospray source is operated in positive mode, and the ions are detected in parent-ion scan mode. The amount of enzymatic product is calculated from the ion abundance ratio of the product to the internal standard minus that of a blank.

- improvement in product detection over a similar compound substituting the C5 amido for a C12 amido [1]: 2 fold
SMILES: CCCCCCCCCCCCC/C=C/C(O)C(CO[C@@H]1OC(CO)[C@@H](O)C(O)C1O)NC(=O)CCCC (some centres unmarked) [Compound 1]
- detection of ABG (enzymatic product by MS/MS) [2]: Detection of both ABG and GALC is achieved
